Where two headings read alike, the source gives them in different places.
Tests used:
intestinal stem cells [1] = assay: mRNA expression (qPCR) of ChgA and other lineage markers in differentiated intestinal stem cells; format: cell-based, mouse; conditions: for differentiation towards EEC (ChgA expression): added to Notch and EGFR/MEK/ERK inhibition combination without R-Spondin1; for expression of functional EEC markers such as Gip, Gcg, Cck, Pyy: relative to reference gene Hprt; for ChgA expression of the differentiated cells: versus previous differentiation conditions (FIG. 21)
Description: “mRNA ChgA Expression Assay” refers to an assay used to determine the relative ChgA mRNA expression level in a cell population. For example, the assay can determine ChgA mRNA expression level of a differentiated cell population following treatment with agents being tested, as compared to an untested population of post-natal stem cells. In an example of an mRNA ChgA Expression Assay, the cells were collected and the RNA is extracted from the cells using an RNA extraction kit (such as RNeasy Mini kit, Qiagen). The ChgA expression level is then assessed by Quantitative real-time PCR using a one-step qPCR kit (such as QuantiTech Probe PCR kit, Qiagen) and ChgA primers and probes (such as commercially available Taqman probe for mouse ChgA, Life Technologies).
(§1) Organoids or differentiated cells were harvested and RNA was extracted using RNeasy Micro Kit (Qiagen) according to the manufacturer's instruction. Quantitative real-time PCR was performed with QuantiTect Probe PCR kit (Qiagen) using commercially available primers and TaqMan probes (Life Technologies).
Cells were then cultured with EGF, Noggin, and DAPT (END), as well as small molecules. After 2-3 days of differentiation, the cells lysed and ChgA expression was measured by qRT-PCR.
Small molecules were further validated using a 24-well plate culture and the differentiation system. […] The expression of markers of secretory lineage cells including goblet cells (Muc2), enteroendocrine cells (ChgA), and Paneth cells (Lyz1) were measured.

intestinal stem cells [2] = assay: Ngn3 mRNA expression during EEC differentiation; format: cell-based, mouse
Experimental: “Ngn3 Assay” as used herein is an assay used to determine the extent of expression of Ngn3 in cells, such as cells subjected to a differentiation protocol. In an exemplary Ngn3 Assay, RNA is isolated from cells that have been cultured according to a differentiation protocol, and quantitative real-time PCR is performed using commercially available primers and probes (such as Taqman probes) to determine an extent of Ngn3 expression in the cells.
as §1
There has been prior speculation that Ngn3 positive secretory progenitors differentiate to EECs (Genes Dev. 2002).

[3] = system: differentiated intestinal stem cells; assay: Insulin-GFP reporter expression (FACS) in differentiated intestinal stem cells; format: cell-based, mouse; conditions: for optimal concentration in inducing insulin-GFP expression: dose response, day 5; for percentage of Insulin-GFP+ cells: further addition to 616452, day 5
Description: “Insulin Activity Assay” as used herein is an assay used to determine the extent to which insulin gene transcription, translation or insulin release has been activated in a cell population. In an exemplary Insulin Activity Assay, the initial cells are isolated from the intestine of an Insulin-GFP mouse such as […] mouse (also referred to as the MIT-GFP mouse, Jackson lab stock no.: 006864). Intestinal crypts are isolated from the proximal half of the intestine. […] The cells are then passaged for 1-2 times to create a starting cell population for the assay. To test the capacity of agents to activate insulin gene transcription, translation or insulin release, the cells are incubated with appropriate culture media (e.g. aforementioned crypt culture media), growth factors and/or other agents being tested. Appropriate culture media, including crypt culture media as well as the agents being assessed, are added into each well and incubated with the cells for a period of 2-10 days with media change every 2 days. The fraction of insulin-GFP positive cells (i.e., cells in which the insulin-GFP reporter is activated) can be quantified using a flow cytometer to measure the fraction of GFP+ cell population present in the total cell population. Also, the average insulin activity of a cell population can be measured by measuring the average mRNA expression level of insulin of the population normalized using suitable references or housekeeping genes (e.g., using mRNA expression of Hprt as a baseline).

[4] = system: differentiated cell colonies
[5] = system: gastrointestinal stem cells; assay: Insulin / Nkx6.1 mRNA expression (qPCR), 3-stage conversion to insulin producing cells; format: cell-based, mouse
Description: “mRNA Insulin Expression Assay” refers to an assay used to determine the relative insulin mRNA expression level of a cell population. For example, the assay can determine the insulin mRNA level expressed in a cell population treated to increase the expression of insulin in the cells, as compared to an untreated population of cells. In an exemplary mRNA Insulin Expression Assay, the cells were collected and the RNA is extracted from the cells using an RNA extraction kit (such as RNeasy Mini kit, Qiagen). The insulin expression level is then assessed by Quantitative real-time PCR using a one-step qPCR kit (such as QuantiTech Probe PCR kit, Qiagen) and Ins1 or Ins2 primers and probes (such as the commercially available TaqMan probe for mouse Ins1 and Ins2, Life Technologies). The relative insulin mRNA expression can be determined relative to a baseline or other marker, such as Hprt mRNA expression level or other baseline marker.
as §1
Based on the protocol to convert gastrointestinal stem cells into insulin producing cells, a 3-stage process was developed, specifically, Day 0-1 as Stage 1, Day 1-3 as Stage 2, Day 3-5 as Stage 3. After Stage 3, the cells turn on significant level of Insulin expression as indicated by Ins-EGFP expression and qPCR for Insulin mRNA expression. Optionally, the cells can be further cultured for 1-2 weeks, as Stage 4. For each stage, a set of specific combination of small molecules (and/or growth factors) were added. The objective was to optimize the reprogramming protocol to increase insulin expression, specifically Insulin mRNA expression for each stage, by screening and testing new small molecules (or growth factors).

[6] = 5 days 2-step protocol, Tubastatin A in step 1, Tranylcypromine in both steps
[7] = ENRD conditions, 2 days of differentiation
[8] = continuing culture of Islet-like Insulin expression cell colonies
[9] = added in step 2 of 2-step protocol
[10] = added in step 1 only versus both steps

## N[C@@H]1C[C@H]1c1ccccc1 (racemic) [Tranylcypromine]
Intestinal stem cells [1]; 2-step protocol, 5 days
  expression of Goblet cell (Muc2) and Paneth cell (Lyz1) markers: significantly decreased
Intestinal stem cells [1]; [6]
  EEC marker ChgA expression: increased
  expression of markers for K cell (Gip), L cell (Gcg), and I cell (Cck): also increased
Intestinal stem cells [1]; [7]
  ChgA expression: increased
Intestinal stem cells [2]; [7]
  Ngn3 expression: increase

## Nc1ncn([C@@H]2O[C@H](CO)[C@@H](O)[C@H]2O)c(=O)n1 [5-Aza, 5-Azacytidine]
[3]
  optimal concentration in inducing insulin-GFP expression: 0.5 to 1 µM
  percentage of Insulin-GFP+ cells: subsequently increased
[4]
  cell death in the culture: induced cell death

## Nc1ncn([C@H]2C[C@H](O)[C@@H](CO)O2)c(=O)n1 [5Aza, 5-aza-2′-deoxycytidine]
[5]; treatment extended from Stage 1 only to Stage 1 and Stage 2
  Insulin mRNA expression: slightly increased

## O=C(NC[C@H](O)CO)c1ccncc1Nc1ccc(I)cc1F [AS703026]
Intestinal stem cells [1]; 24-well validation, END conditions
  expression of Goblet cell marker (Muc2) and Paneth cell marker (Lyz1): not similarly increased
Intestinal stem cells [1]; 96-well screening, END conditions, 2-3 days
  ChgA expression: increased
Intestinal stem cells [1]; multiple conditions (FIG. 6)
  expression of enteroendocrine cell marker ChgA: specifically increased
Intestinal stem cells [2]; 2 days, added after removal of R-spondin1
  Ngn3 expression: further decreased

## COc1cc2ncnc(Nc3ccc(NC(=O)c4ccccc4)cc3)c2cc1OC [Aurora Kinase Inhibitor II]
[5]; added in Stage 3
  Insulin mRNA expression: increase

## COC(=O)C1=C(C)NC(C)=C([N+](=O)[O-])C1c1ccccc1C(F)(F)F (stereo not drawn) [BayK 8644]
[5]
  stages of addition giving highest activity: highest activity when added in Stages 1-3
[5]; added in Stage 1
  Insulin mRNA expression: increased
[5]; dose response
  concentration of highest activity / optimal concentration in promoting Insulin expression: 2 µM
[4]; [8]
  effect of removal: could be removed without much influence

## Cc1c[nH]c(-c2cnc(NCCNc3ccc(C#N)cn3)nc2-c2ccc(Cl)cc2Cl)n1 [CHIR99021, 6-[[2-[[4-(2,4-dichlorophenyl)-5-(5-methyl-1H-imidazol-2-yl)-2-pyrimidinyl]amino]ethyl]amino]-3-pyridinecarbonitrile]
Intestinal stem cells [1]
  differentiation towards EEC (ChgA expression): did not further increase
[3]; added in Step 1 to increase Wnt activation, 5 days
  GFP expression: did not increase
[5]; Stage 3, combined with T3
  Insulin mRNA expression: further increased
[5]; added in Stage 3
  Insulin mRNA expression: greatly increased

## CC(C)Oc1ccc(-c2cnc3c(-c4ccnc5ccccc45)cnn3c2)cc1 [DMH-1]
[5]; added in Stages 2-3
  expression of Nkx6.1 and insulin: increased
[4]; [8]
  effect of removal: could be removed without much influence

## C=C[C@@]1(C)CC(=O)[C@]2(O)[C@@]3(C)[C@@H](O)CCC(C)(C)[C@@H]3[C@H](O)[C@H](OC(C)=O)[C@@]2(C)O1 [Forskolin]
[4]; 50-100 μM, added in Stage 3
  cell survival: improved cell survival
[4]; [8]
  cell survival: increased cell survival

## O=C(O)c1ccc(O)c2ncccc12 [IOX1]
[5]; used at 5-10 μM
  Insulin and Nkx6.1 expression: increased

## O=C(NC1CC1)c1cc(-c2cccs2)on1 [ISX-9, N-cyclopropyl-5-(2-thienyl)-3-isoxazolecarboxamide]
Intestinal stem cells [1]
  expression of functional EEC markers such as Gip, Gcg, Cck, Pyy: decreased
  ChgA expression of the differentiated cells: further increased
[3]; added to the combination, 5 days in culture
  number of GFP+ cells: further increase
[5]; dose response
  optimal dose in promoting Insulin and Nkx6.1 expression: 10 to 20 µM

## Cc1ccc2nc(NC(=O)CSc3nc4c(c(=O)n3-c3ccccc3)SCC4)sc2c1 [IWP 2]
Intestinal stem cells [1]
  differentiation towards EEC (ChgA expression): did not further increase

## CC(=O)N[C@@H](CS)C(=O)O [N-Acetylcysteine]
[5]; Stage 3, combined with T3
  Insulin mRNA expression: further increased
[5]; added in Stage 3
  Insulin mRNA expression: increased

## N[C@@H](Cc1cc(I)c(Oc2ccc(O)c(I)c2)c(I)c1)C(=O)O [T3, Triiodothyronine]
[5]; added in Stage 3
  Insulin mRNA expression: greatly increased

## O=C1O[C@H]([C@@H](O)CO)C(O)=C1O [Vitamin C]
[5]; added in Stage 2-3
  effect on conversion: beneficial effects
[5]; added in Stage 3
  Insulin mRNA expression: did not show such effect

## Cc1cc(-c2ccc(CC(=O)Nc3ccc(-c4cccnc4)cc3)cc2)ccn1 [Wnt-C59]
Intestinal stem cells [1]; added in step 2
  Paneth cell marker Lyz1 expression: effectively decreased
Intestinal stem cells [1]; [9]
  ChgA expression: further increased
Intestinal stem cells [1]; delayed addition for 12-24 hours in step 2
  ChgA expression: further increases
Intestinal stem cells [1]
  ChgA expression of the differentiated cells: further increased
[3]
  percentage of Insulin-GFP+ cells: subsequently increased
[5]; addition delayed for 12 hours in Stage 2
  Insulin mRNA expression: increased
[5]; dose response (FIG. 52)
  optimal dose in promoting Insulin and Nkx6.1 expression: 5 µM

## Cc1cccc(-c2n[nH]cc2-c2ccc3ncccc3n2)n1 [compound 616452, 2-[3-(6-methyl-2-pyridinyl)-1H-pyrazol-4-yl]-1,5naphthyridine]
Intestinal stem cells [1]; 2-step protocol
  expression of mature EEC markers (Gcg, Gip, Cck, Tph1, Sst, Sct, Pyy): greatly increased
  goblet cell marker Muc2 expression: decreased
Intestinal stem cells [1]; 2-step protocol with Repsox
  Cck expression over the expression level in the ENR condition: 430 ×
  Gip expression over the expression level in the ENR condition: 800 ×
  Pyy expression over the expression level in the ENR condition: 15,000 ×
  Sct expression over the expression level in the ENR condition: 300 ×
  Tph1 expression over the expression level in the ENR condition: 120 ×
Intestinal stem cells [1]; [10]
  ChgA level: comparable level
  expression of mature EEC markers: greatly reduced
Intestinal stem cells [1]; [9]
  ChgA expression: greatly promoted
Intestinal stem cells [1]
  expression of functional EEC markers such as Gip, Gcg, Cck, Pyy: greatly increase
[3]
  optimal concentration in inducing insulin-GFP expression: 5 µM
[3]; during EEC differentiation from ISCs
  cells becoming GFP positive: about 1%
[5]; added in Stage 1-3 compared with Stage 2-3
  Insulin mRNA (Ins2): increased
[5]; dose response
  optimal dose in promoting Insulin and Nkx6.1 expression: 10 to 15 µM
[4]
  cell death in the culture: induced cell death

## EGF: epidermal growth factor
Intestinal stem cells [1]; 5 days
  EEC marker (ChgA, Gip, Gcg, CCK) expression on removing EGF from the media: further increased
[4]; EGF removed in both steps
  dead cells in the lumen of the differentiated cell colony: more dead cells

## Exendin-4: factor identified to increase Insulin mRNA expression
[5]; added in Stage 3
  Insulin mRNA expression: increase

From patent US11021687B2, “Production of differentiated enteroendocrine cells and insulin producing cells” (Massachusetts Institute of Technology, priority 2016, dated 2021)
